Measurements as given in US20040086553A1, “Foods and beverages for whitening and orally administered whitening agents” (The Nisshin OilliO, Ltd., priority 2000, published 2004).
Read-outs that look alike come from different tables or passages of the source.

Experiments:
[1] = tested on: deposition of melanin pigment on the skin induced by the UV light irradiation; assay: Animal test for the confirmation of whitening effect (UV-induced skin pigmentation, test feed); format: in vivo, Brown guinea pigs; settings: 4 weeks; for Evaluation Results CI: number of 7 animals ranked Conspicuous Imp.; for Evaluation Results MI: number of 7 animals ranked Medium Imp.; for Evaluation Results NC: number of 7 animals ranked No Change; for Evaluation Results SI: number of 7 animals ranked Slight Imp.
From the text: More specifically, the whitening effect can be evaluated by removing a half of the hair on the back of each brown guinea pig, keeping these animals over 2 weeks while irradiating the hair-removed area with a UV lamp, dividing these guinea pigs into groups in such a manner that there is not any difference in the degree of the melanin pigmentation induced by the UN light irradiation, allowing the animals in each group to freely take a test food comprising a feed having a low vitamin C content to which a variety of triterpenes have been added and keeping these animals over additional 4 weeks to evaluate the degree of skin pigmentation while comparing the same with those observed for a control group and for a positive control group.
Brown guinea pigs (5-week-old male animals) were preliminarily kept for one week using a commercially available feed (CG-7 available from Nippon Kurea Company), a half of the hair on the back was removed and the hair-removed portion on the back was irradiated with light rays emitted from a UV lamp of 1.2 mW for 5 minutes on the 1st day and then with light rays emitted from a UV lamp of 1.0 mW for 5 minutes on the 2nd and 3rd days. Subsequently, these animals were kept over 2 weeks using a feed having a low vitamin C content (200.0 mg/kg feed), these guinea pigs were divided into 12 groups (comprising 7 animals each) in such a manner that there was not observed any difference in the degree of deposition of melanin pigment on the skin induced by the UV light irradiation between groups and then the animals were allowed to freely ingest each test feed comprising the feed having a low vitamin C content to which each triterpene had been added in an amount specified in the following Table 2. In this respect, however, the vitamin C-deficient feed per se was supplied to the control group and a vitamin C-supplemented feed was supplied to the positive control group. After 4 weeks from the supply of the test feed, the degree of the pigmentation of the skin was evaluated according to the following criteria.

B-16 melanoma cells = assay: Evaluation of melanin production-inhibitory function (degree of whiteness of cultured cells); format: cell-based; for Evaluation of Melanin Production-Inhibition (degree of whiteness of cells): key: ++: The degree of whiteness is higher than that observed for the positive control; +: The degree of whiteness is almost identical to that of the positive control; ±: The degree of whiteness is not higher than that observed for the positive control, but higher than that observed for control; −: The degree of whiteness is almost identical to that observed for the control
From the text: The melanin production-inhibitory function of the 5-membered ring-containing triterpenes incorporated into the foods or beverages and orally administered whitening agents of the present invention can be determined by a test method, which makes use of cultured melanocytes. The term “melanocyte(s)” used herein means cells having an ability of producing melanin and when cultivating these cells in the usual manner, the cells are blackened due to the accumulation of melanin pigment thus produced. Contrary to this, if a substance having such a melanin production-inhibitory function is incorporated into this cultivation system, the melanin production is suppressed and the skin is relatively whitened. The melanin production-inhibitory function can likewise be evaluated on the basis of this degree of relative whitening.
A culture medium (2 mL/well) was dispensed to a 6-well plate, a predetermined amount of B-16 melanoma cells was inoculated into the culture medium in each well and the cells were cultured at 37° C. and 5% CO2 by allowing the culture medium to stand. On the next day, a solution of test sample (each 5-membered ring-containing triterpene to be evaluated) having a predetermined concentration was added to and mixed with the culture medium and the cultivation was continued. On the 5th day from the initiation of the cultivation, the culture medium was exchanged and the test sample solution was again added to each well. On the next day, the culture medium was removed from each well to thus recover the cells, followed by washing the cells with PBS (phosphate-buffered physiological saline) and evaluation of the desired function based on the degree of whiteness of the cells. In this connection, the melanin production-inhibitory effect was evaluated by comparing the resulting degree of whiteness with that observed when 450 ppm of vitamin C-magnesium phosphate having a known effect was added instead of the test sample solution (positive control) and that observed when any test sample was not added (control) according to the following criteria.
The evaluation criteria for the degree of whiteness of cells are as follows: […]

[2] = 500.0 mg/kg feed, free ingestion
[3] = Concentration 2 ppm, rank vs 450 ppm vitamin C-magnesium phosphate
[4] = Concentration 6 ppm, rank vs 450 ppm vitamin C-magnesium phosphate
[5] = Concentration 10 ppm, rank vs 450 ppm vitamin C-magnesium phosphate
[6] = Concentration 25 ppm, rank vs 450 ppm vitamin C-magnesium phosphate
[7] = Concentration 50 ppm, rank vs 450 ppm vitamin C-magnesium phosphate
[8] = compared with 450 ppm of vitamin C-magnesium phosphate
[9] = 500.0 mg/kg feed, free ingestion, 500 mg/kg
[10] = Concentration 4 ppm, rank vs 450 ppm vitamin C-magnesium phosphate
[11] = Concentration 8 ppm, rank vs 450 ppm vitamin C-magnesium phosphate
[12] = Concentration 15 ppm, rank vs 450 ppm vitamin C-magnesium phosphate
[13] = positive control group, 2500.0 mg/kg feed

| Compound | Evaluation of Melanin Production-Inhibition (degree of whiteness of cells) (B-16 melanoma cells; [3]) | Evaluation of Melanin Production-Inhibition (degree of whiteness of cells) (B-16 melanoma cells; [4]) | Evaluation of Melanin Production-Inhibition (degree of whiteness of cells) (B-16 melanoma cells; [5]) | Evaluation of Melanin Production-Inhibition (degree of whiteness of cells) (B-16 melanoma cells; [6]) | Evaluation of Melanin Production-Inhibition (degree of whiteness of cells) (B-16 melanoma cells; [7]) | melanin production-inhibitory function relative to that observed for the positive control/standard (B-16 melanoma cells; [8]) | other results |
| --- | --- | --- | --- | --- | --- | --- | --- |
| CC1(C)CC[C@]2(CO)CC[C@]3(C)C(=CC[C@@H]4[C@@]5(C)CC[C@H](O)C(C)(C)[C@@H]5CC[C@]43C)[C@@H]2C1 [Erythrodiol] | ± | ± | ± | + | + | about 20 times | Evaluation Results CI [1, 2]: 2; Evaluation Results MI [1, 2]: 2; Evaluation Results NC [1, 2]: 1; Evaluation Results SI [1, 2]: 2 |
| 2,3-O-di-Triethylsilyl-Maslinic Acid Triethylsilyl Ester [Compound of Synthetic Example 3] | − | ± | + | + | + | about 40 times |  |
| C=C(C)[C@@H]1CC[C@]2(COC(C)=O)CC[C@]3(C)[C@H](CC[C@@H]4[C@@]5(C)CC[C@H](OC(C)=O)C(C)(C)[C@@H]5CC[C@]43C)[C@@H]12 [Compound of Synthetic Example 9, 3,28-O-di-Acetyl-Betulin] | − | − | ± | ± | + | about 10 times |  |
| CC(=O)OCC12CCC(C)(C)CC1C1=CCC3C4(C)CCC(OC(C)=O)C(C)(C)C4CCC3(C)C1(C)CC2 (centres unmarked) [Compound of Synthetic Example 5, 3,28-O-di-Acetyl-Erythrodiol] | − | ± | ± | + | + | about 20 times |  |
| C=C(C)[C@@H]1CC[C@]2(CO)CC[C@]3(C)[C@H](CC[C@@H]4[C@@]5(C)CC[C@H](O)C(C)(C)[C@@H]5CC[C@]43C)[C@@H]12 [Betulin] | − | ± | ± |  |  | about 40 times | Evaluation Results CI [1, 2]: 1; Evaluation Results MI [1, 2]: 3; Evaluation Results NC [1, 2]: 1; Evaluation Results SI [1, 2]: 2 |
| CC1(C)CC[C@]2(C(=O)O)CC[C@]3(C)C(=CC[C@@H]4[C@@]5(C)C[C@@H](O)[C@H](O)C(C)(C)[C@@H]5CC[C@]43C)[C@@H]2C1 [Purified maslinic acid 2, maslinic acid] |  |  |  |  |  |  | Evaluation Results CI [1, 9]: 3; Evaluation Results MI [1, 2]: 3; Evaluation Results NC [1, 2]: 0; Evaluation Results SI [1, 9]: 1; Evaluation of Melanin Production-Inhibition (degree of whiteness of cells) (B-16 melanoma cells): ± and + and ++; melanin production-inhibitory function relative to that observed for the positive control/standard (B-16 melanoma cells): about 110 times |
| CCOC(=O)[C@]12CC[C@@H](C)[C@H](C)[C@H]1C1=CC[C@@H]3[C@@]4(C)CC[C@H](O)C(C)(C)[C@@H]4CC[C@@]3(C)[C@]1(C)CC2 [Compound of Synthetic Example 6, Ursolic Acid Ethyl Ester] | ± | ++ | ++ |  |  | about 110 times | Evaluation of Melanin Production-Inhibition (degree of whiteness of cells) (B-16 melanoma cells; [10]): +; Evaluation of Melanin Production-Inhibition (degree of whiteness of cells) (B-16 melanoma cells; [11]): ++ |
| CC(=O)OC[C@]12CC[C@@H](C)[C@H](C)[C@H]1C1=CC[C@@H]3[C@@]4(C)CC[C@H](OC(C)=O)C(C)(C)[C@@H]4CC[C@@]3(C)[C@]1(C)CC2 [Compound of Synthetic Example 7, 3,28-O-di-Acetyl-Uvaol] | − | − | ± | + | + | about 20 times |  |
| 2,3-O-di-Stearoyl-Maslinic Acid Ethyl Ester [Compound of Synthetic Example 4] | ± | + | ++ |  |  | about 75 times | Evaluation of Melanin Production-Inhibition (degree of whiteness of cells) (B-16 melanoma cells; [10]): ±; Evaluation of Melanin Production-Inhibition (degree of whiteness of cells) (B-16 melanoma cells; [11]): ++; Evaluation of Melanin Production-Inhibition (degree of whiteness of cells) (B-16 melanoma cells; [12]): ++ |
| O=C1O[C@H]([C@@H](O)CO)C(O)=C1O [L-Ascorbic acid, reference compound] |  |  |  |  |  |  | Evaluation Results CI [1, 13]: 0; Evaluation Results MI [1, 13]: 1; Evaluation Results NC [1, 13]: 2; Evaluation Results SI [1, 13]: 4 |
| O=c1cc(CO)occ1O [Kojic acid, reference compound] |  |  | − | − | ± |  | Evaluation of Melanin Production-Inhibition (degree of whiteness of cells) (B-16 melanoma cells; [12]): −; Evaluation of Melanin Production-Inhibition (degree of whiteness of cells) (B-16 melanoma cells; Concentration 100 ppm, rank vs 450 ppm vitamin C-magnesium phosphate): ±; Evaluation of Melanin Production-Inhibition (degree of whiteness of cells) (B-16 melanoma cells; Concentration 200 ppm, rank vs 450 ppm vitamin C-magnesium phosphate): +; Evaluation of Melanin Production-Inhibition (degree of whiteness of cells) (B-16 melanoma cells; Concentration 300 ppm, rank vs 450 ppm vitamin C-magnesium phosphate): ++; Evaluation of Melanin Production-Inhibition (degree of whiteness of cells) (B-16 melanoma cells; Concentration 450 ppm, rank vs 450 ppm vitamin C-magnesium phosphate): ++ |
| CC1(C)CC[C@]2(C(=O)O)CC[C@]3(C)C(=CC[C@@H]4[C@@]5(C)C[C@@H](O)[C@H](O)C(C)(C)[C@@H]5CC[C@]43C)[C@@H]2C1 [Purified maslinic acid 3, maslinic acid] |  |  |  |  |  |  | Evaluation of Melanin Production-Inhibition (degree of whiteness of cells) (B-16 melanoma cells): ± and + and ++ |
| C=C(C)[C@@H]1CC[C@]2(C(=O)OCC)CC[C@]3(C)[C@H](CC[C@@H]4[C@@]5(C)CC[C@H](O)C(C)(C)[C@@H]5CC[C@]43C)[C@@H]12 [Compound of Synthetic Example 8, Betulinic Acid Ethyl Ester] | − | ± | ± | + | + | about 20 times |  |
